Laboratory results taken from the supplement of paper PMC13380429.

Tests used:
Settings in all cases: 72 h
HepG2 [1] = experiment: cell viability relative to DMSO; higher = less toxic
Caco-2 [2] = experiment: as above
Vero E6 [3] = experiment: as above
U2OS [4] = experiment: as above
Calu-3 [5] = experiment: as above
HepG2 [6] = experiment: drug sensitivity score (DSS) for viability; higher = more toxic; extreme values may be limits of the assay
Caco-2 [7] = experiment: as above
Vero E6 [8] = experiment: as above
U2OS [9] = experiment: as above
Calu-3 [10] = experiment: as above
HepG2 [11] = experiment: relative viability EC50 (midpoint between 100% and the lowest measured viability); higher = less toxic
Caco-2 [12] = experiment: as above
Vero E6 [13] = experiment: as above
U2OS [14] = experiment: as above
Calu-3 [15] = experiment: as above

| SMILES | cell viability (HepG2 [1]; 1 nM) | cell viability (HepG2 [1]; 10 nM) | cell viability (HepG2 [1]; 100 nM) | cell viability (HepG2 [1]; 1000 nM) | cell viability (HepG2 [1]; 10000 nM) | cell viability (Caco-2 [2]; 1 nM) | cell viability (Caco-2 [2]; 10 nM) | cell viability (Caco-2 [2]; 100 nM) | cell viability (Caco-2 [2]; 1000 nM) | cell viability (Caco-2 [2]; 10000 nM) | cell viability (Vero E6 [3]; 1 nM) | cell viability (Vero E6 [3]; 10 nM) | cell viability (Vero E6 [3]; 100 nM) | cell viability (Vero E6 [3]; 1000 nM) | cell viability (Vero E6 [3]; 10000 nM) | cell viability (U2OS [4]; 1 nM) | cell viability (U2OS [4]; 10 nM) | cell viability (U2OS [4]; 100 nM) | cell viability (U2OS [4]; 1000 nM) | cell viability (U2OS [4]; 10000 nM) | cell viability (Calu-3 [5]; 1 nM) | cell viability (Calu-3 [5]; 10 nM) | cell viability (Calu-3 [5]; 100 nM) | cell viability (Calu-3 [5]; 1000 nM) | cell viability (Calu-3 [5]; 10000 nM) | drug sensitivity score (HepG2 [6]) | drug sensitivity score (Caco-2 [7]) | drug sensitivity score (Vero E6 [8]) | drug sensitivity score (U2OS [9]) | drug sensitivity score (Calu-3 [10]) | relative viability EC50 (HepG2 [11]) | relative viability EC50 (Caco-2 [12]) | relative viability EC50 (Vero E6 [13]) | relative viability EC50 (U2OS [14]) | relative viability EC50 (Calu-3 [15]) |
| --- | --- | --- | --- | --- | --- | --- | --- | --- | --- | --- | --- | --- | --- | --- | --- | --- | --- | --- | --- | --- | --- | --- | --- | --- | --- | --- | --- | --- | --- | --- | --- | --- | --- | --- | --- |
| COc1ccc(Cc2cnc(N)nc2N)cc1OC [diaveridine] | 95.6% | 102% | 89.2% | 95.8% | 98% | 96.9% | 90.4% | 100% | 93% | 96.6% | 99.5% | 104% | 97% | 98.2% | 94.3% | 105% | 103% | 107% | 96.7% | 102% | 86.6% | 94.4% | 97.7% | 84.3% | 88.9% | 0 | 0 | 0 | 0 | 0 | > 10 µM | > 10 µM | > 10 µM | > 10 µM | > 10 µM |
| CCN(CC)C(=O)N1CCN(C)CC1 [diethylcarbamazine] | 88.1% | 100% | 105% | 101% | 107% | 98.2% | 95.4% | 97.2% | 88.5% | 99.9% | 103% | 97.5% | 102% | 103% | 99.3% | 103% | 97.8% | 102% | 91.4% | 98.1% | 102% | 91.4% | 103% | 103% | 102% | 0 | 0 | 0 | 0 | 0 | > 10 µM | > 10 µM | > 10 µM | > 10 µM | > 10 µM |
| C[C@]12CC[C@H](O)C[C@H]1CC[C@@H]1[C@@H]2CC[C@]2(C)[C@@H](C3=CC(=O)OC3)CC[C@]12O [digitoxigenin] | 118% | 117% | 94.5% | 39.2% | 12.2% | 78.9% | 84.9% | 84.1% | 36% | 42.3% | 108% | 97.3% | 13.2% | 0.7% | 0.6% | 105% | 105% | 101% | 16.4% | 6.9% | 97.7% | 93.4% | 104% | 50.5% | 17.7% | 12.4 | 13.5 | 28.4 | 15.2 | 10.5 | 0.605 µM | 0.18 µM | 0.0448 µM | 0.435 µM | 0.849 µM |
| C[C@]12CC[C@H](O)C[C@H]1CC[C@@H]1[C@@H]2C[C@@H](O)[C@]2(C)[C@@H](C3=CC(=O)OC3)CC[C@]12O [digoxigenin] | 100% | 109% | 89.1% | 39.5% | 12.6% | 92.9% | 106% | 114% | 80.5% | 44.6% | 107% | 108% | 77.4% | 1.3% | 1.1% | 96.9% | 105% | 92.3% | 58.4% | 5.8% | 99.8% | 111% | 101% | 91.6% | 29% | 12.8 | 5.7 | 21.4 | 10 | 5.3 | 0.52 µM | 1.28 µM | 0.163 µM | 1.14 µM | 2.19 µM |
| OCCN(CCO)c1nc(N2CCCCC2)c2nc(N(CCO)CCO)nc(N3CCCCC3)c2n1 [dipyridamole] | 94.2% | 101% | 96.6% | 100% | 96.7% | 114% | 98.9% | 102% | 96.2% | 87.1% | 104% | 90.1% | 108% | 95% | 95.3% | 103% | 99.2% | 101% | 102% | 99.8% | 99.1% | 103% | 112% | 96.4% | 104% | 0 | 0.3 | 0 | 0 | 0 | > 10 µM | > 10 µM | > 10 µM | > 10 µM | > 10 µM |
| CCCCCCCCCCCCCCCCCCCCCCO [docosanol] | 104% | 100% | 104% | 93.2% | 85.1% | 95.8% | 92.2% | 99.5% | 116% | 82.1% | 108% | 98.4% | 98.2% | 88.4% | 104% | 92.3% | 96.2% | 94.6% | 98.6% | 105% | 87.6% | 97.6% | 96.4% | 102% | 96.5% | 0.7 | 0.2 | 0 | 0 | 0 | > 10 µM | > 10 µM | > 10 µM | > 10 µM | > 10 µM |
| C=C1/C(=C\C=C2/CCC[C@]3(C)[C@@H]([C@H](C)/C=C/[C@H](C)C(C)C)CC[C@@H]23)C[C@@H](O)C[C@@H]1O [doxercalciferol] | 101% | 94.8% | 99.8% | 96.4% | 99.9% | 104% | 103% | 96.3% | 98.2% | 97.2% | 97.7% | 101% | 97.1% | 95.9% | 106% | 92.2% | 102% | 94.9% | 96.7% | 100% | 95.3% | 102% | 99.9% | 95.8% | 111% | 0 | 0 | 0 | 0 | 0 | > 10 µM | > 10 µM | > 10 µM | > 10 µM | > 10 µM |
| CCCCCCCC(=O)N[C@H](CN1CCCC1)[C@H](O)c1ccc2c(c1)OCCO2 [eliglustat] | 100% | 109% | 95.8% | 108% | 92% | 103% | 96.7% | 95.1% | 99.8% | 99.8% | 97.3% | 91.6% | 84.3% | 84.2% | 85.5% | 101% | 95.4% | 97.8% | 94.6% | 95.3% | 98.7% | 98.3% | 96% | 99.5% | 93.2% | 0 | 0 | 3.1 | 0 | 0 | > 10 µM | > 10 µM | > 10 µM | > 10 µM | > 10 µM |
| CCOCCn1c(N2CCCN(C)CC2)nc2ccccc21 [emedastine] | 89% | 98.4% | 92.7% | 101% | 107% | 97.3% | 102% | 102% | 95.4% | 91.2% | 99.1% | 105% | 100% | 98.4% | 99.8% | 97.4% | 96.3% | 93% | 98.4% | 96% | 94.2% | 101% | 99.3% | 112% | 106% | 0 | 0 | 0 | 0 | 0 | > 10 µM | > 10 µM | > 10 µM | > 10 µM | > 10 µM |
| OC[C@H]1O[C@@H](c2ccc(Cl)c(Cc3ccc(O[C@H]4CCOC4)cc3)c2)[C@H](O)[C@@H](O)[C@@H]1O [empagliflozin] | 99.4% | 109% | 91.9% | 109% | 117% | 95% | 97.3% | 102% | 94.7% | 104% | 90% | 103% | 95% | 94.9% | 106% | 98.6% | 92.3% | 103% | 96.7% | 96.4% | 87.9% | 110% | 114% | 98.7% | 101% | 0 | 0 | 0 | 0 | 0 | > 10 µM | > 10 µM | > 10 µM | > 10 µM | > 10 µM |
| CSc1ccc(C(=O)c2[nH]c(=O)[nH]c2C)cc1 [enoximone] | 96.6% | 95.8% | 103% | 82.5% | 100% | 92.8% | 87.2% | 100% | 111% | 87% | 99.6% | 99.6% | 86% | 90.6% | 94.9% | 99.2% | 97.9% | 101% | 108% | 105% | 106% | 101% | 94.2% | 96.7% | 101% | 0 | 0 | 0 | 0 | 0 | > 10 µM | > 10 µM | > 10 µM | > 10 µM | > 10 µM |
| CCOc1ccc(Cc2cc([C@]34OC[C@](CO)(O3)[C@@H](O)[C@H](O)[C@H]4O)ccc2Cl)cc1 [ertugliflozin] | 108% | 109% | 107% | 98.6% | 98.6% | 96.8% | 96.9% | 90.5% | 89.9% | 103% | 102% | 104% | 95.1% | 101% | 102% | 101% | 102% | 102% | 98.1% | 101% | 106% | 99.1% | 104% | 98.7% | 96.4% | 0 | 0 | 0 | 0 | 0 | > 10 µM | > 10 µM | > 10 µM | > 10 µM | > 10 µM |
| CCc1cc(Cl)c(OC)c(C(=O)NC[C@@H]2CCCN2CC)c1O [eticlopride] | 115% | 108% | 121% | 106% | 91.4% | 102% | 101% | 92.5% | 103% | 87% | 107% | 102% | 106% | 102% | 94.7% | 99.1% | 106% | 96.3% | 103% | 94.8% | 105% | 102% | 103% | 99.9% | 98.5% | 0 | 0.1 | 0 | 0 | 0 | > 10 µM | > 10 µM | > 10 µM | > 10 µM | > 10 µM |
